Data from ChEMBL document CHEMBL1201862, “PubChem BioAssay data set” (2004).
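The compound was tested at five concentrations on cells cultured in 96-well plates, with a 48-hour exposure period. Here, GI50 denotes the concentration required for 50% inhibition of growth.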 The source made the active and inactive calls. Cut-off read from the data, not from the text of the source: active = GI50 up to about 1.1 µM and inactive = higher.

Legend:
Test in all cases: inhibition of tumour cell growth, NCI panel, 48 h
ACHN = system: ACHN
HCT-116 = system: HCT-116
K562 = system: K562
KM12 = system: KM12
M14 = system: M14
MOLT-4 = system: MOLT-4
NCI-H460 = system: NCI-H460
OVCAR-4 = system: OVCAR-4
OVCAR-8 = system: OVCAR-8
SF-295 = system: SF-295
SK-MEL-28 = system: SK-MEL-28
SNB-75 = system: SNB-75
SR = system: SR
SW-620 = system: SW-620
U-251 = system: U-251
UACC-257 = system: UACC-257
UO-31 = system: UO-31
XF498 = system: XF498
MCF7 = system: MCF7
PC-3 = system: PC-3

In the case of `CC(=O)Oc1ccc2c(c1)C(=O)c1nc(C)c(C)nc1C2=O`, the GI50 (ACHN) is reported as 48.4 µM (inactive), the GI50 (HCT-116) is reported as 43.7 µM (inactive) and the GI50 (K562) is reported as 47 µM (inactive). For the same compound, the GI50 (KM12) was 59.3 µM (inactive), the GI50 (M14) was 38.1 µM (inactive) and the GI50 (MOLT-4) was 41.8 µM (inactive). The GI50 (NCI-H460) was 30.8 µM (inactive), the GI50 (OVCAR-4) was 46.3 µM (inactive) and the GI50 (OVCAR-8) was 45.1 µM (inactive). The GI50 (SF-295) was 49.9 µM (inactive), the GI50 (SK-MEL-28) was 46.1 µM (inactive) and the GI50 (SNB-75) was 80.4 µM (inactive). The GI50 (SR) was 29.6 µM (inactive), the GI50 (SW-620) was 46.5 µM (inactive) and the GI50 (U-251) was 51.6 µM (inactive). For the same compound, the GI50 (UACC-257) was 36.6 µM (inactive), the GI50 (UO-31) was > 74.6 µM (inactive) and the GI50 (XF498) was 43.9 µM (inactive).

For `COC(=O)C1=C(C=O)C2C=CC1C2` (stereo unspecified), the GI50 (ACHN) was > 67.9 µM (inactive), the GI50 (HCT-116) was 58.9 µM (inactive) and the GI50 (K562) was 34.2 µM (inactive). For the same compound, the GI50 (KM12) was > 100 µM (inactive), the GI50 (M14) was 45.1 µM (inactive) and the GI50 (MCF7) was > 100 µM (inactive). For the same compound, the GI50 (MOLT-4) was 35.6 µM (inactive), the GI50 (NCI-H460) was > 100 µM (inactive) and the GI50 (OVCAR-4) was > 82.8 µM (inactive). The GI50 (OVCAR-8) was 55 µM (inactive), the GI50 (PC-3) was > 100 µM (inactive) and the GI50 (SF-295) was > 100 µM (inactive). The GI50 (SK-MEL-28) was > 64.3 µM (inactive), the GI50 (SNB-75) was 28.6 µM (inactive) and the GI50 (SR) was > 56.6 µM (inactive). The GI50 (SW-620) was 43.6 µM (inactive), the GI50 (U-251) was > 88.5 µM (inactive) and the GI50 (UACC-257) was 47.9 µM (inactive). For the same compound, the GI50 (UO-31) was > 100 µM (inactive) and the GI50 (XF498) was 27.2 µM (inactive).

`O=C(NC1CCCC1=O)c1ccccc1` (stereo unspecified) was tested, and the GI50 (ACHN) was > 100 µM (inactive), the GI50 (HCT-116) was > 100 µM (inactive) and the GI50 (K562) was > 100 µM (inactive). The GI50 (KM12) was > 100 µM (inactive), the GI50 (M14) was > 100 µM (inactive) and the GI50 (MOLT-4) was > 100 µM (inactive). For the same compound, the GI50 (NCI-H460) was > 100 µM (inactive), the GI50 (OVCAR-4) was > 100 µM (inactive) and the GI50 (OVCAR-8) was > 100 µM (inactive). For the same compound, the GI50 (SF-295) was > 100 µM (inactive), the GI50 (SK-MEL-28) was > 100 µM (inactive) and the GI50 (SNB-75) was 31.5 µM (inactive). The GI50 (SR) was > 100 µM (inactive), the GI50 (SW-620) was > 100 µM (inactive) and the GI50 (U-251) was > 100 µM (inactive). For the same compound, the GI50 (UACC-257) was > 100 µM (inactive), the GI50 (UO-31) was > 100 µM (inactive) and the GI50 (XF498) was > 100 µM (inactive).

In the case of `CN(Cc1cnc2nc(N)nc(N)c2n1)c1ccc(C(=O)N[C@@H](CCC(=O)O)C(=O)O)cc1` [METHOTREXATE], the GI50 (ACHN) is reported as 0.0385 µM (active), the GI50 (HCT-116) is reported as 0.0347 µM (active) and the GI50 (K562) is reported as 0.0285 µM (active). The GI50 (KM12) was 0.0493 µM (active), the GI50 (M14) was 0.0334 µM (active) and the GI50 (MCF7) was 0.0486 µM (active). For the same compound, the GI50 (MOLT-4) was 0.0326 µM (active), the GI50 (NCI-H460) was 0.028 µM (active) and the GI50 (OVCAR-4) was 59.6 µM (inactive). The GI50 (OVCAR-8) was 0.0292 µM (active), the GI50 (PC-3) was 0.0865 µM (active) and the GI50 (SF-295) was 0.0383 µM (active). For the same compound, the GI50 (SK-MEL-28) was 4.86 µM (inactive), the GI50 (SNB-75) was 21.7 µM (inactive) and the GI50 (SR) was 0.0373 µM (active). The GI50 (SW-620) was 0.0388 µM (active), the GI50 (U-251) was 0.0723 µM (active) and the GI50 (UACC-257) was 0.836 µM (active). The GI50 (UO-31) was 0.227 µM (active) and the GI50 (XF498) was 68.5 µM (inactive).
